As usually defined, the EC50 is the concentration giving half of the maximal effect. As a reminder, the IC50 is the concentration at which inhibition is half-maximal.

The subject of test [1] is dengue virus type 1. Briefly: Antiviral activity against DENV1 infected in African green monkey Vero cells assessed as virus yield reduction after 48 hrs by plaque assay. Type of test: functional, organism-based.
In test [2] the test system is dengue virus type 2. The test is described as follows: Antiviral activity against DENV2 infected in African green monkey Vero cells assessed as virus yield reduction after 48 hrs by plaque assay. Type of test: functional, organism-based.
The subject of test [3] is dengue virus type 3. Briefly: Antiviral activity against DENV3 infected in African green monkey Vero cells assessed as virus yield reduction after 48 hrs by plaque assay. In kind it is functional, organism-based.
The subject of test [4] is dengue virus type 4. The test is described as follows: Antiviral activity against DENV4 infected in African green monkey Vero cells assessed as virus yield reduction after 48 hrs by plaque assay. In kind it is functional, organism-based.
Test [5] deals with dengue virus type 1. Briefly: Antiviral activity against DENV1 infected in human A549 cells after 3 days by focus reduction assay. Type of test: functional, organism-based. The conditions noted are these: A549, 72 h.
The subject of test [6] is dengue virus type 1. Briefly: Antiviral activity against DENV1 infected in African green monkey Vero cells after 30 mins by immunofluorescence assay. In kind it is functional, organism-based. The conditions noted are these: 0.5 h.
The test system of test [7] is dengue virus type 2. The test is described as follows: Antiviral activity against DENV2 infected in African green monkey Vero cells after 30 mins by immunofluorescence assay. Type of test: functional, organism-based. Particulars: 0.5 h.
The subject of test [8] is dengue virus type 3. The test is described as follows: Antiviral activity against DENV3 infected in African green monkey Vero cells after 30 mins by immunofluorescence assay. Type of test: functional, organism-based. Particulars: 0.5 h.
For test [9], the system named is dengue virus type 4. Briefly: Antiviral activity against DENV4 infected in African green monkey Vero cells after 30 mins by immunofluorescence assay. Particulars: 0.5 h. Type of test: functional, organism-based.
Test [10] relates to dengue virus type 2. The test is described as follows: Virucidal activity against DENV2 infected in human HepG2 cells. Type of test: functional, organism-based.
The test system of test [11] is dengue virus type 2. The test is described as follows: Virucidal activity against DENV2 infected in human HeLa cells. In kind it is functional, organism-based.
Test [12] deals with dengue virus type 2. The test is described as follows: Antiviral activity against DENV2 New Guinea C infected in HEK293 cells assessed as reduction in viral infection after 48 hrs by focus forming assay. In kind it is functional, organism-based. Particulars: HEK293, 48 h.
Test [13] relates to dengue virus type 2. Briefly: Antiviral activity against DENV2 infected in BHK-21 cells. Type of test: functional, organism-based.
Test [14] has as its system dengue virus type 2. Briefly: Antiviral activity against DENV2 infected in human HepG2 cells. In kind it is functional, organism-based.
The test system of test [15] is dengue virus type 2. The test is described as follows: Antiviral activity against DENV2 assessed as reduction in plaque formation. Type of test: functional, organism-based.
The target of the next test is Genome polyprotein (dengue virus type 2, UniProt P29990). The test is described as follows: Inhibition of His-tagged DENV2 NS2B-NS3 serine protease expressed in Escherichia coli BL21 using Boc-Gly-Arg-Arg-7-amino-4-methylcoumarin as substrate measured after 10 mins by fluorometric assay.
Test [16] has as its system dengue virus type 1. The test is described as follows: Antiviral activity against DENV1 infected in African green monkey Vero cells assessed as reduction in viral replication after 4 days by qRT-PCR analysis. The conditions noted are these: 96 h. Type of test: functional, organism-based. On the technique in general: Real-time PCR tracks product formation cycle by cycle.

The test system of test [17] is dengue virus type 2. Briefly: Antiviral activity against DENV2 infected in African green monkey Vero cells assessed as reduction in viral replication after 4 days by qRT-PCR analysis. Particulars: 96 h. In kind it is functional, organism-based.
The test system of test [18] is dengue virus type 3. The test is described as follows: Antiviral activity against DENV3 infected in African green monkey Vero cells assessed as reduction in viral replication after 4 days by qRT-PCR analysis. Type of test: functional, organism-based. Particulars: 96 h.
The subject of test [19] is dengue virus type 4. The test is described as follows: Antiviral activity against DENV4 infected in African green monkey Vero cells assessed as reduction in viral replication after 4 days by qRT-PCR analysis. In kind it is functional, organism-based. The conditions noted are these: 96 h.
Test [20] deals with dengue virus type 2. Briefly: Antiviral activity against DENV2 infected in monkey LLC-MK2 cells assessed as reduction in plaque formation after 72 hrs by 96-well based plaque titration method. In kind it is functional, organism-based. The conditions noted are these: LLC-MK2, 72 h.
Test [21] deals with dengue virus type 2. Briefly: Antiviral activity against DENV2 infected in African green monkey Vero cells assessed as reduction in plaque formation after 72 hrs by 96-well based plaque titration method. Type of test: functional, organism-based.
Test [22] concerns dengue virus type 2. The test is described as follows: Antiviral activity against DENV2 16681 infected in HEK293 cells after 72 hrs by luciferase reporter gene assay. Particulars: Dengue virus, 16681, HEK293, 72 h. Type of test: functional, organism-based. (In general: A reporter such as luciferase makes a cellular process visible.)
Test [23] deals with dengue virus type 2. The test is described as follows: Antiviral activity against DENV2 infected in monkey LLC-MK2 cells. In kind it is functional, organism-based.

In brackets after ≈: the same amount, converted by molar mass.

Chain of Genome polyprotein (P29990 1346-1475 limits assumed): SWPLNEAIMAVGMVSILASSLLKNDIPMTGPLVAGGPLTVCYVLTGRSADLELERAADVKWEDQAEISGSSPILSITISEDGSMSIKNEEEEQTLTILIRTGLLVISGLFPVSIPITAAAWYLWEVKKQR
Chain of Genome polyprotein (P29990 1476-2093 limits assumed): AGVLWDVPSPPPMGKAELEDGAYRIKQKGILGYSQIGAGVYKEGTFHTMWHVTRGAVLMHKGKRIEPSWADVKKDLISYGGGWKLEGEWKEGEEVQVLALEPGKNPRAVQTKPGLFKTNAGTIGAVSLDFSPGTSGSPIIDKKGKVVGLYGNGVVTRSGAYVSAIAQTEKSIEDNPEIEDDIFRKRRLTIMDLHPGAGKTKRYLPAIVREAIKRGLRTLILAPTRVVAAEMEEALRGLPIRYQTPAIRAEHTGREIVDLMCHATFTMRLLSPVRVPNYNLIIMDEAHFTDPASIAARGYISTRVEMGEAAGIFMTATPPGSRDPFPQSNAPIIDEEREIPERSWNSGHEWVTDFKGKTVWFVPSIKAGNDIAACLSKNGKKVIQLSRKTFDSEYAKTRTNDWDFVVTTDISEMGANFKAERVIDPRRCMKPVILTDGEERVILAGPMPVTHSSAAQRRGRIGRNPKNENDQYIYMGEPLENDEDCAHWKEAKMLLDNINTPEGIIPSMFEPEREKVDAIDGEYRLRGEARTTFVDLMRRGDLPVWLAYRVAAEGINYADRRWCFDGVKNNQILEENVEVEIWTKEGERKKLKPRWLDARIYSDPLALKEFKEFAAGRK

For the compound `COc1ccc2c3ccnc(C)c3n(C)c2c1`, the EC50 with dengue virus type 1 [1], in the test with dengue virus type 2 [2], in the test with dengue virus type 3 [3] and with dengue virus type 4 [4] was 3.2 to 49.5 µM throughout.
As for `CC[C@H]1CN2CCc3c([nH]c4ccccc34)[C@H]2C[C@@H]1/C(=C\OC)C(=O)OC` [HIRSUTINE], the EC50 with dengue virus type 1 [5] is 1.9 µM.
With `C/C(=N\NC(N)=S)[C@H](Cc1c[nH]c2ccccc12)NC(=O)c1ccccc1`, the EC50 with dengue virus type 1 [6], in the test on dengue virus type 2 [7], in the test with dengue virus type 3 [8] and in the test on dengue virus type 4 [9] was 30 to 50 µM each time.
Take `C=C1CC[C@@H]2[C@](C)(CO)[C@H](O)CC[C@@]2(C)[C@@H]1C/C=C1/C(=O)OC[C@H]1O` [ANDROGRAPHOLIDE]: the results for the EC50 with dengue virus type 2 [10] and in the test on dengue virus type 2 [11] were 21.3 µM and 22.7 µM, respectively.
For `Nc1c(C(=O)Nc2nc(-c3ccccc3)cs2)sc2nc3c(cc12)CN(c1ccccc1)CC3`, the IC50 in the test with dengue virus type 2 [12] was 0.025 µM.
`O=c1c(O)c(-c2ccc(O)c(O)c2)oc2cc(O)cc(O)c12` [QUERCETIN] had an IC50 in the test on dengue virus type 2 [13] of 176 µg/mL (≈ 583 µM).
`COc1ccc([C@@H]2CC(=O)c3c(O)cc(O[C@@H]4O[C@H](CO[C@@H]5OC[C@](O)(CO)[C@H]5O)[C@@H](O)[C@H](O)[C@H]4O)cc3O2)cc1` returned an IC50 in the test on dengue virus type 2 [14] of 13.1 µg/mL (≈ 22.6 µM).
Regarding `COc1cc(/C=C/C(=O)CC(=O)/C=C/c2ccc(O)c(OC)c2)ccc1O` [CURCUMIN], in the test with dengue virus type 2 [15], the IC50 was determined as 11.5 µM.
For the compound `O=C(Nc1nc2cc(O)c(O)cc2s1)c1ccccc1Sc1ccc(C(F)(F)F)cc1`, the IC50 on Genome polyprotein was determined as 3.6 µM. Further, the EC50 in the test on dengue virus type 1 [16] is 0.1 to 3 µM; with dengue virus type 2 [17], 0.1 µM; in the test on dengue virus type 3 [18], 0.1 µM; with dengue virus type 4 [19], 0.1 µM.
For `COc1cc2c(c(O)c1C)C(=O)CC(c1ccccc1)O2` (centres undefined) [STROBOPININ-7-METHYLETHER], the EC50 came out at 3.72 µM in the test with dengue virus type 2 [20] and 12.3 µM in the test with dengue virus type 2 [21].
Turning to `CN1CCN(C2Cc3ccc(F)cc3Sc3ccc(O)cc32)CC1` (centres undefined), the IC50 in the test on dengue virus type 2 [22] was found to be 1.2 µM.
Compound `C=C(C)[C@@H]1CC[C@]2(C)CC[C@]3(C)[C@H](CC[C@@H]4[C@@]5(C)CC[C@H](O)C(C)(C)[C@@H]5CC[C@]43C)[C@@H]12` [LUPEOL] had an EC50 with dengue virus type 2 [23] of 9.77 µM.
